Here are results for 2 molecules from patent US20230265151A1, “GIP/GLP1 CO-AGONIST COMPOUNDS” (priority 2020, published 2023).

Like-named read-outs stand apart in the source and are kept apart here. *1 amine or outer side, *2 acyl side, *3 side chain or, on linkers, in order; H or OH if unused. Where a SMILES comes first, the peptide text is derived from it. Side-chain parts run from the residue outwards. [ ]: non-standard residue; d: D form. The star is where a group is joined. αMePhe(2-F) = C[C@](N)(Cc1ccccc1F)C(=O)O; C14 diacid = O=C(O)CCCCCCCCCCCCC(=O)*; εLys = N[C@@H](CCCCN[*:1])C(=O)[*:2]; αMeY = C[C@](N)(Cc1ccc(O)cc1)C(=O)O; 4Pal = N[C@@H](Cc1ccncc1)C(=O)O; αMeL = CC(C)C[C@](C)(N)C(=O)O; Orn = NCCC[C@H](N)C(=O)O; AEEA = NCCOCCOCC(=O)O; Aib = CC(C)(N)C(=O)O

Test [1] addresses T1, human GIP receptor (human) (UniProt P48546).
T1 sequence (looked up): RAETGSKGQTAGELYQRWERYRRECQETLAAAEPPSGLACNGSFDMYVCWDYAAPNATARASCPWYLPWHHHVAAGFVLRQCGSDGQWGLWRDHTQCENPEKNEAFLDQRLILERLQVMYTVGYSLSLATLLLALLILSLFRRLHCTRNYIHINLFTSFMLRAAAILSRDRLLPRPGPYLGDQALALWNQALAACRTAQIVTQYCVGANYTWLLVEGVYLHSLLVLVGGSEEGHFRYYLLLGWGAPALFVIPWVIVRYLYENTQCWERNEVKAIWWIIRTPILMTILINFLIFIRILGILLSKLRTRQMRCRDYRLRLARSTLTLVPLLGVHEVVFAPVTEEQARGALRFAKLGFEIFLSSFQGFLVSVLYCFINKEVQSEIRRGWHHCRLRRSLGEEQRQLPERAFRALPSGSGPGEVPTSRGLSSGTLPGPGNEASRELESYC
Nature of the test: cell-based or functional assay.

Another test concerns the target T2, hGIPR (Homo sapiens, UniProt P48546).
T2 construct: expressed in transfected cells
T2 sequence (P48546 22-466): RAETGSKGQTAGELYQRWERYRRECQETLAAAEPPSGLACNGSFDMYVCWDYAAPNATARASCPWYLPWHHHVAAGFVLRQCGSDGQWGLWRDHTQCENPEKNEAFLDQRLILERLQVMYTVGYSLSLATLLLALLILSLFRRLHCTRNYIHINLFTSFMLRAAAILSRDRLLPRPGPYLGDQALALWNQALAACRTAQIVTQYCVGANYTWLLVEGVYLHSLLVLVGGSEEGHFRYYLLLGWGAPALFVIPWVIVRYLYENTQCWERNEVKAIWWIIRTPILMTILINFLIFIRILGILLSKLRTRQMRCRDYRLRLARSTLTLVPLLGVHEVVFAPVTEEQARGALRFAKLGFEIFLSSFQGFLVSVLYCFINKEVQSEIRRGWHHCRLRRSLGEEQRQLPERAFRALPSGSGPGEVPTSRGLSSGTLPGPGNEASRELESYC
Briefly: Functional cAMP formation (HTRF) in HEK-293 clonal cells expressing hGIPR, 0.1% bovine casein, without or with 1.0% human serum albumin. It is filed as cell-based. The note with it: for EC50: geometric mean, read-out: hGIPR EC50, nM (SEM, n); for Emax: read-out: hGIPR Emax, % ± SEM. The gist of the method: (§1)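 Cells were stimulated with peptide for 30 min at 37° C, then lysed in buffer carrying cAMP-d2 and anti-cAMP Eu3+-cryptate for a competitive HTRF read after at least 60 min at room temperature. The 665/620 nm ratio was converted to nM cAMP against a standard curve.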
(In general: cAMP levels reflect the balance of adenylyl cyclase and phosphodiesterase activity.)

The target in the next test is hGLP-1R (Homo sapiens, UniProt P43220). Briefly: Functional cAMP formation (HTRF) in HEK-293 clonal cells expressing hGLP-1R, 0.1% bovine casein, without or with 1.0% human serum albumin. The arrangement: expressed in transfected cells. It is filed as cell-based. The note with it: for EC50: geometric mean, read-out: hGLP-1R EC50, nM (SEM, n). Summed up:
as §1

A further test concerns the target T3, hGCGR (Homo sapiens, UniProt P47871).
T3 construct: expressed in transfected cells
Briefly: Functional cAMP formation (HTRF) in HEK-293 clonal cells expressing hGCGR, 0.1% bovine casein, without or with 1.0% human serum albumin. It is filed as cell-based. To be noted: geometric mean, read-out: hGCGR EC50, nM (SEM, n). The gist of the method:
as §1

Where [2] appears, read: 0.1% bovine casein and 1.0% human serum albumin, 37° C.
Where [3] appears, read: cAMP, incubated at 37° C., 0.1% bovine casein (no human serum albumin).

Chain of hGLP-1R (P43220 24-463): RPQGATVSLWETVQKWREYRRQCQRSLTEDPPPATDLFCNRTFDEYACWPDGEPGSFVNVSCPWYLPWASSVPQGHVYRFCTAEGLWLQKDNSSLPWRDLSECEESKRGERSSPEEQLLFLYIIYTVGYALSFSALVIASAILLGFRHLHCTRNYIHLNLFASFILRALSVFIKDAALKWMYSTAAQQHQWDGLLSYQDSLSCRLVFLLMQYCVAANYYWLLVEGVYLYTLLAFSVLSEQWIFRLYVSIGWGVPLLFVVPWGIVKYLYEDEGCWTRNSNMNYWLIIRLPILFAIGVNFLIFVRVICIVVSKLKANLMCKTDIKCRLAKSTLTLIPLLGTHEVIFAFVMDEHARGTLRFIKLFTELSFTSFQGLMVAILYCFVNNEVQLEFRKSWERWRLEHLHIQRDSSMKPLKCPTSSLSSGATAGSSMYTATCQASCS
T3 sequence (P47871 26-477): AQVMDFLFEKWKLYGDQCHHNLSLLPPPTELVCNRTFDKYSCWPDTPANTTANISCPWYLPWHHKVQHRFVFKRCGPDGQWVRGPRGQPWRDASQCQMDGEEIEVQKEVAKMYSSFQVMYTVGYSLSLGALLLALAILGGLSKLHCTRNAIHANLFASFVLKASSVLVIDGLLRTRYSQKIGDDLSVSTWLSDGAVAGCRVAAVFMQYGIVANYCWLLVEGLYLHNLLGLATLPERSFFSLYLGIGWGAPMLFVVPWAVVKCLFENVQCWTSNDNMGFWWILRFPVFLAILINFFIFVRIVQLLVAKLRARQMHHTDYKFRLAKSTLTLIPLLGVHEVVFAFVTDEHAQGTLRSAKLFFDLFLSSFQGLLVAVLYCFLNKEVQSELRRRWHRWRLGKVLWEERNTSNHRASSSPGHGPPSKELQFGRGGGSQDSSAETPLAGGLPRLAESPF

In test [1], “hGIP(1-42)NH2 (from UniProt P09681 52-93) (ligand)” came in with an Emax, cAMP of 100%; a cAMP EC50 (1.0% HSA) of 0.597 nM; a cAMP Emax (1.0% HSA) of 98%.

Broadly, the EC50 is the concentration at which the effect is half-maximal. As a reminder, the Emax is the greatest response seen or fitted, relative to the assay's reference. With `CC[C@H](C)[C@H](NC(=O)[C@H](CC(C)C)NC(=O)[C@](C)(Cc1ccc(O)cc1)NC(=O)[C@@H](CCC(=O)O)NC(=O)[C@@H](NC(=O)[C@H](Cc1ccccc1)NC(=O)[C@H](CCC(=O)O)NC(=O)C(C)(C)NC(=O)[C@H](CCC(N)=O)NC(=O)[C@H](C)NC(=O)[C@H](CCCCNC(=O)COCCOCCNC(=O)COCCOCCNC(=O)[C@@H](N)CCCCNC(=O)CCCCCCCCCCCCC(=O)O)NC(=O)[C@H](CCCN)NC(=O)[C@H](CC(=O)O)NC(=O)[C@H](CC(C)C)NC(=O)[C@](C)(CC(C)C)NC(=O)[C@@H](NC(=O)[C@H](CO)NC(=O)[C@H](Cc1ccncc1)NC(=O)[C@H](CC(=O)O)NC(=O)[C@H](CO)NC(=O)[C@@H](NC(=O)[C@](C)(Cc1ccccc1F)NC(=O)[C@@H](NC(=O)CNC(=O)[C@H](CCC(=O)O)NC(=O)C(C)(C)NC(=O)[C@@H](N)Cc1ccc(O)cc1)[C@@H](C)O)[C@@H](C)O)[C@@H](C)CC)[C@@H](C)CC)C(=O)N[C@@H](CCC(=O)O)C(=O)NCC(=O)NCC(=O)N[C@@H](CCCCNC(=O)COCCOCCNC(=O)COCCOCCNC(=O)[C@@H](N)CCCCNC(=O)CCCCCCCCCCCCC(=O)O)C(N)=O` [Example 185] (H-Y[Aib]EGT[αMePhe(2-F)]TSD[4Pal]SI[αMeL]LD[Orn]K([AEEA-AEEA-εLys-C14 diacid])AQ[Aib]EFI[dE][αMeY]LIEGGK([AEEA-AEEA-εLys-C14 diacid])-NH2; N-terminus assumed), the EC50 on hGIPR (setting [2]) is 0.335 nM; at hGIPR (setting [3]), 0.018 nM; on hGLP-1R (setting [2]), 11.3 nM; at hGLP-1R (setting [3]) it was 0.419 nM; at hGCGR (setting [2]), over 9950 nM; at hGCGR (setting [3]), over 9950 nM. Also, the Emax on hGIPR (HEK293, 0.1% bovine casein and 1.0% human serum albumin, 37° C., percent of maximal response to GIP(1-42)NH2) came out at 86.2%; on hGIPR (HEK293, percent of maximal response to GIP(1-42)NH2, 37° C., 0.1% bovine casein, arithmetic mean), 94.5 ± 0.288%; on hGLP-1R (HEK293, percent of maximal response to GLP-1(7-36)NH2, 37° C., 0.1% bovine casein, arithmetic mean, read-out: hGLP-1R Emax, % ± SEM) it was 95.1 ± 1.74%.
